Laboratory results taken from patent publication US12071624B2, “Antisense oligonucleotide targeting ARL4C molecule, and nucleic acid drug using antisense oligonucleotide” (OSAKA UNIVERSITY, priority 2018, dated 2024).
[AmNA] = 2',4'-bridged nucleic acid with N-methyl amide bridge (AmNA); d = 2'-deoxy (DNA)

Experiments:
ARL4C mRNA [1] = test: Screening of ARL4C ASO knockdown efficiency by real-time PCR in A549 cells; assay type: cell-based, human; conditions: screening of 38 types of ARL4C ASOs
Experimental: (§1) HLE cells, HCT116 cells, and A549 cells were transfected with 25 to 50 nM ASO and 10 to 20 nM siRNA using Lipofectamine 3000 (Invitrogen, Carlsbad, CA, USA) or RNAiMAX (Invitrogen). Transfected cells were used in the experiments 36 to 48 hours after the end of the transfection.
(§2) Cell migration assays and quantitative real-time PCR analyses were performed according to the methods reported by Fujii S et al. (Oncogene 2015; 34: 4834-44).
First, base sequences of 15-nucleotide ARL4C were selected based on the structure of ARL4C mRNA. From thousands of ARL4C ASO candidates, those that may cause hepatotoxicity were excluded, and 38 types of ARL4C ASOs (those other than ASO-1312, ASO-1450 and ASO-3223 among the ASOs in Table 1) were selected, by high-dimensional structure prediction of ARL4C mRNA. The ASOs used in this test were those in which all of the phosphodiester bonds were substituted with phosphorothioate bonds. Knockdown efficiencies of ARL4C ASOs in A549 cells (lung adenocarcinoma cells) were investigated by screening experiments using real-time PCR. It has been confirmed that the protein abundance of ARL4C in A549 cells is reduced by treatment with ARL4C siRNA. The ARL4C mRNA amounts in A549 cells treated with 38 types of ARL4C ASOs were measured, and the results are shown in (a) of FIG. 3.

ARL4C mRNA [2] = test: ARL4C mRNA amount by real-time PCR in HCT116 cells; assay type: cell-based, human; conditions: HCT116 cells transfected at 25 nM
Experimental: as §1, §2
HLE cells and HCT116 cells were transfected with the above-described seven types of ARL4C ASOs and the control ASO at 25 nM, and the ARL4C mRNA amounts were measured by real-time PCR; the results thereof are shown in (a) of FIG. 4. […] In order to optimize the effect of these three types of ARL4C ASOs, four bases were added to each of these three types of ARL4C ASOs, whereby ASO-1312, ASO-1450, and ASO-3223 each of which consisted of 19 bases were produced. With these six types of ARL4C ASOs (ASO-1316, ASO-1312, ASO-1454, ASO-1450, ASO-3225, and ASO-3223), the knockdown effect on ARL4C was further studied.

[3] = system: nuclear localization of YAP in HLE cells; test: Anti-YAP/TAZ antibody staining in HLE cells; assay type: cell-based; conditions: HLE cells transfected at 25 nM
Experimental: as §1
HLE cells or A549 cells were transfected with control ASO, ASO-1316, and ASO-3223 at 25 nM, and were stained with an anti-YAP/TAZ antibody; the results are shown in (c) of FIG. 6.

S2-CP8/Luc cells = test: Xenograft orthotopic transplantation model using pancreatic cancer cells; assay type: in vivo, mouse; conditions: twice a week from 3 days after transplantation, 28 days after transplantation
Experimental: Assay based on the xenograft orthotopic transplantation model using pancreatic cancer cells was performed by arranging the method described in the literature (Kim M P. et. al., Nat Protoc 2009; 4: 1670-80). Specifically, S2-CP8/Luc cells (5×10^5 cells) were suspended in 100 μl of Hanks' Balanced Salt Solution (HBSS) containing 50% matrigel, and were orthotopically transplanted in the central part of the pancreas using a 27 G needle. Three days after transplantation, the mice were divided into two groups, a control ASO-administered group (n=6) and an ARL4C ASO-administered group (n=7). […] Tumors were quantified once a week using the IVIS imaging system (Xenogen Corp.). In the in-vivo imaging, 100 μl of VivoGlo luciferin (30 mg/ml) was intraperitoneally administered, and bioluminescence images were recorded eight minutes after the administration. The quantification of the tumors was carried out in the following manner: a region of interest (ROI) was selected, and a radiance value of the same was measured using Living Image 4.3.1 Software (Caliper Life Science). The mice were euthanized 28 days after the transplantation, tumor weights and the number of mesenteric lymph nodes (lymph nodes of 1 mm or larger in diameter) were determined, and histological analysis was carried out. […]

Row | Substance | knockdown efficiency (ARL4C mRNA amount) (ARL4C mRNA [1]) | ARL4C mRNA amount (ARL4C mRNA [2]) | nuclear localization of YAP [3] | cancer metastasis to mesenteric lymph nodes (S2-CP8/Luc cells)
1 | ASO-1316: 15-mer AmNA/phosphorothioate ASO targeting ARL4C, base sequence SEQ ID NO: 1 gcatacctcaggtaa; Table 1 SEQ ID NO 13 (antisense GCATACCTCAGGTAA; AmNA and phosphorothioate modified, pattern not given here) | high knockdown efficiencies | reduced the ARL4C mRNA amount | did not affect the nuclear localization of YAP | could suppress cancer metastasis to mesenteric lymph nodes
2 | ASO-3223: 19-mer ARL4C ASO of Table 1, SEQ ID NO 55 (antisense NNNGGTTACAGTATTTNNC; sugars from the 5' end [AmNA]3 d13 [AmNA]2 d1, backbone, methylation of C and the base at N not given here; further chemistry not fully specified) |  |  | did not affect the nuclear localization of YAP | 
